# In PMC9503446, “Effects of Medicinal Leech-Related Cationic Antimicrobial Peptides on Human Blood Cells and Plasma” (Molecules, 2022):
# No end group written: not given here.
# Columns and labels:
# [1] = system: erythrocytes; assay: Hemolysis assay, erythrocytes in PBS; assay type: cell-based, human; settings: 0.5 h, 37 °C
# Protocol: Erythrocytes were incubated (0.5 h, 37 °C) with different CAMP concentrations ranging from 6.25 μM to 100 μM. Incubation conditions chosen were similar to those used in other studies. Following incubation, the samples were centrifuged, and the supernatant analyzed spectrophotometrically for hemoglobin at 414 nm and 540 nm. Absorption at 414 nm provides higher sensitivity. The results were the same no matter which wavelength was used to monitor for hemoglobin.
# (§1) The hemolytic activity of CAMPs was determined using a hemolysis assay measuring hemoglobin released from damaged cells. A working erythrocyte suspension (in PBS) was prepared so that its ten-fold dilution gave an optical density of 0.4 at 800 nm. This working suspension corresponded to a cell density of about 30 × 10^6 cells/mL. Aliquots of 125 μL of CAMP solutions of different concentrations were added to Eppendorf tubes. […] The supernatant (200 μL) was transferred to the wells of a microplate, and the absorbance of hemoglobin was measured by a Thermo Electron Multiskan Ascent microplate reader (Thermo Fisher Scientific Inc., Waltham, MA, USA), with a test wavelength of 414 nm as well as 540 nm and a background wavelength of 690 nm. The hemolysis percentage was calculated using the following equation: Hemolysis (%) = {(sample absorbance − negative control)/(positive control − negative control)} × 100.
# [2] = preparation of 2 mM stock solution; dissolved with PBS containing 4% DMSO
# Protocol: First, 2 mM stock solutions of CAMPs were prepared in PBS, except for the CAMPs pept_1 and pept_2. […] Its 2 mM solution was made up using PBS containing 4% DMSO (PBS/DMSO), which gave a final DMSO concentration not higher than 0.2% in any of experiments. […] Therefore, negative controls containing relevant concentrations of DMSO were run for pept_1 and pept_2, and DMSO contribution was eliminated by subtracting the measured value in the negative control samples from that in the test samples.
# [3] = system: erythrocytes; assay: Hemolysis assay in the presence of human serum albumin (HSA); assay type: cell-based; settings: 50 μM peptide, 50 μM HSA, 0.5 h, 37 °C
# Protocol: Given that the normal HSA concentration in plasma is 500–700 μM and the dilution of plasma in the final, cell-containing samples was 1:10, a final HSA concentration of 50 μM was applied. Then, 100 μM CAMP working solutions were made up in PBS or PBS containing 100 μM or 70 μM HSA to give final concentrations of 50 μM CAMP and 50 μM or 35 μM HSA.
# as §1
# [4] = system: Escherichia coli; assay: MIC determination, microtiter dilution; assay type: cell-based, Escherichia coli str. K12 substr. MG1655; settings: present study, two-fold dilution series in MHB, 37 °C, 24 h, turbidity at 560 nm, mean of three independent experiments
# Protocol: CAMPs were designed and synthesized as described previously in our works. The minimum inhibitory concentrations (MICs) for the Gram-negative bacterium Escherichia coli and Gram-positive bacterium Bacillus subtilis were determined earlier or in the present study. The MIC values for Escherichia coli were the same or higher than those for Bacillus subtilis. The CAMP concentrations tested were in the range up to 100 μM.
# Escherichia coli str. K12 substr. MG1655 (Invitrogen) and Bacilus subtilis str. 168HT (Vavilov Institute of General Genetics, Russian Academy of Sciences, Moscow, Russia) were grown in Luria–Bertani broth (Difco, BD Difco, Thermo Fisher Scientific Inc., Waltham, MA, USA) according to standard procedure. Bacteria were stored with 10% glycerol at −70 °C until use. MIC determination was carried out by growing bacteria in 96-well microtitration plates in the presence of a two-fold dilution series of the peptide using the standard microtiter dilution method. Briefly, single bacterial clones were cultured overnight in Mueller–Hinton broth (MHB, BD Difco, Thermo Fisher Scientific Inc., Waltham, MA, USA) at 150 rpm and 37 °C, then transferred to fresh MHB and cultured until the logarithmic growth phase. […] After incubation at 37 °C for 24 h, the antimicrobial susceptibility was estimated by turbidity measurement at 560 nm using a microplate reader. […]
Substance,"EC50 ([1]; hemolysis assay, rough estimate, read-out: Concentration at which 50% lysis was achieved, erythrocytes) [µM]",Solubility in PBS [2],Inhibition of CAMP-induced hemolysis by HSA [3],MIC (E. coli) [4] [µM],"Hemolysis ([1]; 100 μM peptide in PBS, no plasma, Triton X-100 = 100%)"
FRIMRILRVLKL-NH2 [pept_1],65,poorly soluble in PBS,nearly completely,–,–
FRIMRILRVLK-NH2 [pept_2],–,–,–,10,10–15%
